Counter-ions that a name gives are not always drawn.
Experiments:
ROCK1 = ROCK1 (Homo sapiens (Human), UniProt Q13464); assay: ROCK assay (LABCHIP peptide phosphorylation), ROCK1; format: biochemical; details: 5 μM ATP, 1.5 μM peptide substrate; read-out: ROCK1 IC50
ROCK2 = ROCK2 (Homo sapiens (Human), UniProt O75116); assay: ROCK assay (LABCHIP peptide phosphorylation), ROCK2; format: biochemical; details: 5 μM ATP, 1.5 μM peptide substrate
Chain of ROCK2 (O75116 whole entry, species assumed): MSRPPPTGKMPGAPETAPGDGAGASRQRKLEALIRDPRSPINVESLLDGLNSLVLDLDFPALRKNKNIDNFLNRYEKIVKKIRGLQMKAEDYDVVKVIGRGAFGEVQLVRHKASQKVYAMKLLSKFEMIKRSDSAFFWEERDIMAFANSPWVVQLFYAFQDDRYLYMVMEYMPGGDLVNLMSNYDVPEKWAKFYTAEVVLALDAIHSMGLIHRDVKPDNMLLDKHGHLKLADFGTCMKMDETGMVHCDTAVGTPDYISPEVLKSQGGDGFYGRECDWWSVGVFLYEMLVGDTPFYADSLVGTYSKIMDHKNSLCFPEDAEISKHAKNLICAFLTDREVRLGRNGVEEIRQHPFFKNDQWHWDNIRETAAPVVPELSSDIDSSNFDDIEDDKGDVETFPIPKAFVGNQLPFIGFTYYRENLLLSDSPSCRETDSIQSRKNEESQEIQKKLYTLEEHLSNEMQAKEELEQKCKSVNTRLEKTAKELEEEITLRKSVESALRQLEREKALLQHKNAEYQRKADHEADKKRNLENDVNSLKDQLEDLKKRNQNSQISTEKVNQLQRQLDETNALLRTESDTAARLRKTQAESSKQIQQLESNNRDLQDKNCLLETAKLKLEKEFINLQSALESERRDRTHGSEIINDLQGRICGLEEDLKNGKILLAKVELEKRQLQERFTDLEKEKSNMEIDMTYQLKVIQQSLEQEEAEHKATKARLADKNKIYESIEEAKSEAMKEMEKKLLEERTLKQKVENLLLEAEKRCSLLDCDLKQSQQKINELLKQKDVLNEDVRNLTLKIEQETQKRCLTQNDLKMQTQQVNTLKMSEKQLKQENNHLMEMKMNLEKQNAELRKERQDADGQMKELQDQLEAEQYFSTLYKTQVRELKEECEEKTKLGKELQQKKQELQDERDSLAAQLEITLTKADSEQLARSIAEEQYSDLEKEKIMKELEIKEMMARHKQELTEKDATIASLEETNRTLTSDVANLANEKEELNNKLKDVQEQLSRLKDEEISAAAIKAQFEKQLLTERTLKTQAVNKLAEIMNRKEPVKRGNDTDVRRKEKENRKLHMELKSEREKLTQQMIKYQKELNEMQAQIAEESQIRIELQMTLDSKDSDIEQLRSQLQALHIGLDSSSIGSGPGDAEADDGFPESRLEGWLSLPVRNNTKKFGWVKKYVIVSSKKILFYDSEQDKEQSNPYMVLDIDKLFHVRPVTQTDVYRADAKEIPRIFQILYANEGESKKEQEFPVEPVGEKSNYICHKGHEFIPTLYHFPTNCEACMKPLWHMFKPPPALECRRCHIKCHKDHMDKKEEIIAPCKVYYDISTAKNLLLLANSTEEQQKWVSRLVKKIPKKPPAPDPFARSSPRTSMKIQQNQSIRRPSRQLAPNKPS

Chain of ROCK1 (Q13464 whole entry, species assumed): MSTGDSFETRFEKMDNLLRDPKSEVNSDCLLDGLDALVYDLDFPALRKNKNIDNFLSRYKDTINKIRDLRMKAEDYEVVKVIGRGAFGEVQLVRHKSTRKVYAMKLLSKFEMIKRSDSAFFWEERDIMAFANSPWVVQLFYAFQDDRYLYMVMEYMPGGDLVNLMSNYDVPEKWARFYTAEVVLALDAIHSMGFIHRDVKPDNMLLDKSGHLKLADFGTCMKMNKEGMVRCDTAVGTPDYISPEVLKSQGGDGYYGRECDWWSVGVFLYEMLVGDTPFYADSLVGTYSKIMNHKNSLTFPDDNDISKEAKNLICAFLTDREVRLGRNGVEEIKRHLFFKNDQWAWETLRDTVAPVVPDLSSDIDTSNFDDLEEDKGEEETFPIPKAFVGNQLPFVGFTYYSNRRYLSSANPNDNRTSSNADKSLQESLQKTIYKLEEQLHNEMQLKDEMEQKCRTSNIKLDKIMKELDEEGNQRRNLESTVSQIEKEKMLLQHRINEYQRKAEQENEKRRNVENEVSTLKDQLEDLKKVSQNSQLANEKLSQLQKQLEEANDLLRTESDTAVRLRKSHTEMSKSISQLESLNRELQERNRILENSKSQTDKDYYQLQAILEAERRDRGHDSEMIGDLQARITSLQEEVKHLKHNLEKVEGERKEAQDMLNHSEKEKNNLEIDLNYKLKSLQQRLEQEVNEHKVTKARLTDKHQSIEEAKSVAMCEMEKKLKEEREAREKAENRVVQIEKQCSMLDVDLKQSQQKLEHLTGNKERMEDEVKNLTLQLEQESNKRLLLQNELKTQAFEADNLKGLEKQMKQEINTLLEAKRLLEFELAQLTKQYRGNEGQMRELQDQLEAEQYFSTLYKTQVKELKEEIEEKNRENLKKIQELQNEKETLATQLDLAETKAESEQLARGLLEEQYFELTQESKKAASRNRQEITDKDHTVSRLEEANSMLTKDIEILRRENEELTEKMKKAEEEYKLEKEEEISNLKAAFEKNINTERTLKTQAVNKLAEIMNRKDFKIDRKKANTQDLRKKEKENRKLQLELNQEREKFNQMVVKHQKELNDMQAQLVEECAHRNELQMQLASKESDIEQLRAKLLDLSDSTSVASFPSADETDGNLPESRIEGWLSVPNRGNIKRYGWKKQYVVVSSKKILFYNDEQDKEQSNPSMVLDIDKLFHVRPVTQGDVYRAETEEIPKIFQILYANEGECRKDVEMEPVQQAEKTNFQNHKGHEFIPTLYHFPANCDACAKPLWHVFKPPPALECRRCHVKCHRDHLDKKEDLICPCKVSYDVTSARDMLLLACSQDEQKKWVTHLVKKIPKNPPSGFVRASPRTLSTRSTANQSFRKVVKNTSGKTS

Row | SMILES | IC50 (ROCK1) | IC50 (ROCK2)
1 | CC(C)(O)Cn1nc(C(=O)Nc2ccc(-c3n[nH]c(=O)c4ccccc34)cc2)c2ccccc21 [Example 137, 1-(2-hydroxy-2-methylpropyl)-N-[4-(4-oxo-3,4-dihydrophthalazin-1-yl)phenyl]-1H-indazole-3-carboxamide] | 0.1 to 100 nM | 0.1 to 100 nM
2 | O=C(Nc1ccc(-c2c[nH]c(=O)c3ccccc23)cc1)c1ccc(N2CCCCC2)cc1 [Example 249, N-(4-(1-Oxo-1,2-dihydroisoquinolin-4-yl)phenyl)-4-(piperidin-1-yl)benzamide] | 0.1 to 100 nM | 0.1 to 100 nM
3 | Cc1cc(NC(=O)c2nn(CCN(C)C)c3ccccc23)ccc1-c1n[nH]c(=O)c2ccccc12 [Example 303, 1-[2-(dimethylamino)ethyl]-N-[3-methyl-4-(4-oxo-3,4-dihydrophthalazin-1-yl)phenyl]-1H-indazole-3-carboxamide] | 101 to 1000 nM | 0.1 to 100 nM
4 | O=C(Cc1ccc(-c2n[nH]c(=O)c3ccccc23)cc1)N1CCN(Cc2ccccc2)CC1 [Example 12, 4-{4-[2-(4-benzylpiperazin-1-yl)-2-oxoethyl]phenyl}-1,2-dihydrophthalazin-1-one] | 1000 to 50000 nM | 1000 to 50000 nM
5 | O=C(Nc1ccc(-c2n[nH]c(=O)c3ccccc23)cc1)c1cnn(CC(F)(F)F)c1 [Example 376, N-(4-(4-Oxo-3,4-dihydrophthalazin-1-yl)phenyl)-1-(2,2,2-trifluoroethyl)-1H-pyrazole-4-carboxamide, TFA] | 101 to 1000 nM | 
6 | CCn1c(C(=O)Nc2ccc(-c3n[nH]c(=O)c4ccccc34)cc2)cc2ccccc21 [Example 107, 1-ethyl-N-[4-(4-oxo-3,4-dihydrophthalazin-1-yl)phenyl]-1H-indole-2-carboxamide] | 0.1 to 100 nM | 0.1 to 100 nM
7 | O=C(Nc1ccc(-c2n[nH]c(=O)c3ccccc23)cc1)c1cnn(-c2ccccc2)c1C(F)(F)F [Example 190, N-[4-(4-oxo-3,4-dihydrophthalazin-1-yl)phenyl]-1-phenyl-5-(trifluoromethyl)-1H-pyrazole-4-carboxamide] | 0.1 to 100 nM | 0.1 to 100 nM
8 | CC(C)(O)Cn1cc(C(=O)Nc2ccc(-c3n[nH]c(=O)c4ccccc34)cc2)c2ccccc21 [Example 138, 1-(2-hydroxy-2-methylpropyl)-N-[4-(4-oxo-3,4-dihydrophthalazin-1-yl)phenyl]-1H-indole-3-carboxamide] | 0.1 to 100 nM | 0.1 to 100 nM
9 | O=C(Cc1ccc(-c2n[nH]c(=O)c3ccccc23)cc1)Nc1ccc2ncsc2c1 [Example 21] | 101 to 1000 nM | 0.1 to 100 nM
10 | Cc1c(C(=O)Nc2ccc(-c3n[nH]c(=O)c4ccccc34)cc2)nnn1-c1ccccc1 [Example 400, 5-Methyl-N-(4-(4-oxo-3,4-dihydrophthalazin-1-yl)phenyl)-1-phenyl-1H-1,2,3-triazole-4-carboxamide] | 0.1 to 100 nM | 0.1 to 100 nM
11 | O=C(Cc1ccc(-c2n[nH]c(=O)c3ccccc23)cc1)N1CCc2ccccc21 [Example 23, 4-{4-[2-(2,3-dihydro-1H-indol-1-yl)-2-oxoethyl]phenyl}-1,2-dihydrophthalazin-1-one] | 101 to 1000 nM | 0.1 to 100 nM
12 | O=C(O)Cn1nc(C(=O)Nc2ccc(-c3n[nH]c(=O)c4ccccc34)cc2)c2ccccc21 [Example 328, 2-(3-{[4-(4-Oxo-3,4-dihydrophthalazin-1-yl)phenyl]carbamoyl}-1H-indazol-1-yl)acetic Acid] | 101 to 1000 nM | 0.1 to 100 nM
13 | Cc1cc(NC(=O)c2c(C)nc3ccccn23)ccc1-c1n[nH]c(=O)c2ccccc12 [Example 311, 2-methyl-N-[3-methyl-4-(4-oxo-3,4-dihydrophthalazin-1-yl)phenyl]imidazo[1,2-a] pyridine-3-carboxamide] | 0.1 to 100 nM | 0.1 to 100 nM
14 | O=C(Cc1ccc(-c2n[nH]c(=O)c3ccccc23)cc1)Nc1ccncc1 [Example 7, 2-[4-(4-oxo-3,4-dihydrophthalazin-1-yl)phenyl]-N-(pyridin-4-yl)acetamide] |  | 0.1 to 100 nM
15 | O=C(Nc1ccc(-c2n[nH]c(=O)c3ccccc23)cc1)c1cnn(CC2CC2)c1 [Example 375, 1-(Cyclopropylmethyl)-N-(4-(4-oxo-3,4-dihydrophthalazin-1-yl)phenyl)-1H-pyrazole-4-carboxamide, TFA] | 0.1 to 100 nM | 
16 | O=C(Nc1ccc(-c2n[nH]c(=O)c3ccccc23)cc1)c1cn[nH]c1 [Example 391, N-(4-(4-Oxo-3,4-dihydrophthalazin-1-yl)phenyl)-1H-pyrazole-4-carboxamide, TFA] | 101 to 1000 nM | 
17 | O=C(Cc1ccc(-c2n[nH]c(=O)c3ccccc23)cc1)N1CCc2ccccc2C1 [Example 4, 4-{4-[2-oxo-2-(1,2,3,4-tetrahydroisoquinolin-2-yl)ethyl]phenyl}-1,2-dihydrophthalazin-1-one] |  | 101 to 1000 nM
18 | O=C(Nc1ccc(-c2n[nH]c(=O)c3ccccc23)cc1)c1cnn(C2CCS(=O)(=O)C2)c1 (centres unmarked) [Example 396, 1-(1,1-Dioxidotetrahydrothiophen-3-yl)-N-(4-(4-oxo-3,4-dihydrophthalazin-1-yl)phenyl)-1H-pyrazole-4-carboxamide, TFA] | 101 to 1000 nM | 
19 | O=C(Nc1ccc(-c2n[nH]c(=O)c3ccccc23)cc1)c1csc(-c2ccncc2)n1 [Example 45, N-(4-(4-Oxo-3,4-dihydrophthalazin-1-yl)phenyl)-2-(pyridin-4-yl)thiazole-4-carboxamide] |  | 0.1 to 100 nM

Row | SMILES | IC50 (ROCK1) | IC50 (ROCK2)
20 | O=C(Cc1ccc(-c2n[nH]c(=O)c3ccccc23)cc1)N1Cc2ccccc2C1 [Example 1, 4-(4-(2-(Isoindolin-2-yl)-2-oxoethyl)phenyl)phthalazin-1(2H)-one] |  | 0.1 to 100 nM
21 | O=C(Nc1ccc(-c2n[nH]c(=O)c3ccccc23)cc1)c1csc(-c2cc(F)cc(F)c2)n1 [Example 49, 2-(3,5-difluorophenyl)-N-[4-(4-oxo-3,4-dihydrophthalazin-1-yl)phenyl]-1,3-thiazole-4-carboxamide] |  | 0.1 to 100 nM
22 | O=C(Oc1ccc(-c2n[nH]c(=O)c3ccccc23)cc1)N1Cc2ccccc2C1 [Example 68, 4-(4-Oxo-3,4-dihydrophthalazin-1-yl)phenyl isoindoline-2-carboxylate] |  | 0.1 to 100 nM
23 | CC(O)Cn1cc(C(=O)Nc2ccc(-c3n[nH]c(=O)c4ccccc34)cc2)cn1 (centres unmarked) [Example 387, 1-(2-Hydroxypropyl)-N-(4-(4-oxo-3,4-dihydrophthalazin-1-yl)phenyl)-1H-pyrazole-4-carboxamide] | 1000 to 50000 nM | 
24 | O=C(Nc1ccc(-c2n[nH]c(=O)c3ccccc23)cc1)c1cnn2ccc(OCCO)cc12 [Example 186, 5-(2-hydroxyethoxy)-N-[4-(4-oxo-3,4-dihydrophthalazin-1-yl)phenyl]pyrazolo[1,5-a]pyridine-3-carboxamide] | 101 to 1000 nM | 
25 | O=C(Cc1ccc(-c2c[nH]c(=O)c3ccccc23)c(F)c1)N1Cc2ccccc2C1 [Example 256, 4-(2-Fluoro-4-(2-(isoindolin-2-yl)-2-oxoethyl)phenyl)isoquinolin-1(2H)-one] | 101 to 1000 nM | 
26 | O=C(Nc1ccc(-c2c[nH]c(=O)c3ccccc23)cc1)c1ccc(N2CCOCC2)cc1 [Example 250, 4-Morpholino-N-(4-(1-oxo-1,2-dihydroisoquinolin-4-yl)phenyl)benzamide] | 101 to 1000 nM | 
27 | Cc1ccc2oc(Nc3ccc(-c4n[nH]c(=O)c5ccccc45)cc3)nc2c1 [Example 86, 4-{4-[(5-Methyl-1,3-benzoxazol-2-yl)amino]phenyl}-1,2-dihydrophthalazin-1-one] | 101 to 1000 nM | 
28 | O=C(Nc1ccc(-c2n[nH]c(=O)c3ccccc23)cc1)c1cnn(CC(F)(F)C(F)F)c1 [Example 383, N-(4-(4-Oxo-3,4-dihydrophthalazin-1-yl)phenyl)-1-(2,2,3,3-tetrafluoropropyl)-1H-pyrazole-4-carboxamide, TFA] | 101 to 1000 nM | 
29 | O=C(Nc1ccc(-c2n[nH]c(=O)c3ccccc23)cc1)c1cn2ccnc(Cl)c2n1 [Example 124, 8-chloro-N-[4-(4-oxo-3,4-dihydrophthalazin-1-yl)phenyl]imidazo[1,2-a]pyrazine-2-carboxamide] | 101 to 1000 nM | 
30 | O=C(Cc1ccc(-c2n[nH]c(=O)c3ccccc23)cc1)Nc1cccnc1 [Example 5, 2-[4-(4-oxo-3,4-dihydrophthalazin-1-yl)phenyl]-N-(pyridin-3-yl)acetamide] |  | 101 to 1000 nM
31 | CC1(C)OB(c2ccc(CC(=O)N3Cc4ccccc4C3)c(F)c2)OC1(C)C [Example 36, 2-(2-Fluoro-4-(4,4,5,5-tetramethyl-1,3,2-dioxaborolan-2-yl)phenyl)-1-(isoindolin-2-yl)ethanone] | 1000 to 50000 nM | 
32 | CC(C)(O)Cn1nc(C(=O)Nc2ccc(-c3n[nH]c(=O)c4ccccc34)cc2F)c2ccccc21 [Example 358, N-(2-Fluoro-4-(4-oxo-3,4-dihydrophthalazin-1-yl)phenyl)-1-(2-hydroxy-2-methylpropyl)-1H-indazole-3-carboxamide] | 101 to 1000 nM | 
33 | O=C(Nc1ccc(-c2n[nH]c(=O)c3ccccc23)cc1)c1cnn(C2CCC2)c1 [Example 385, TFA] | 0.1 to 100 nM | 
34 | O=C(Cc1ccc(-c2n[nH]c(=O)c3ccccc23)cc1)NCc1ccccc1 [Example 6, N-benzyl-2-[4-(4-oxo-3,4-dihydrophthalazin-1-yl)phenyl]acetamide] |  | 101 to 1000 nM
35 | CN(Cc1ccccc1)C(=O)Cc1ccc(-c2n[nH]c(=O)c3ccccc23)cc1 [Example 8, N-benzyl-N-methyl-2-[4-(4-oxo-3,4-dihydrophthalazin-1-yl)phenyl]acetamide] |  | 1000 to 50000 nM
36 | O=c1[nH]nc(-c2ccc(Nc3nc4ccccc4s3)cc2)c2ccccc12 [Example 84] | 101 to 1000 nM | 
37 | O=c1[nH]nc(-c2ccc(Nc3nnc(-c4ccccc4)s3)cc2)c2ccccc12 [Example 87, 4-(4-((5-Phenyl-1,3,4-thiadiazol-2-yl)amino)phenyl)phthalazin-1(2H)-one] | 101 to 1000 nM | 
38 | O=C(Nc1ccc(-c2n[nH]c(=O)c3ccccc23)c(CO)c1)c1nn(CCC2CCOCC2)c2ccccc12 [Example 361, N-(3-(Hydroxymethyl)-4-(4-oxo-3,4-dihydrophthalazin-1-yl)phenyl)-1-(2-(tetrahydro-2H-pyran-4-yl)ethyl)-1H-indazole-3-carboxamide] | 101 to 1000 nM | 
